Source: ChEMBL document CHEMBL4613209, “Quinolone hybrids and their anti-cancer activities: An overview” (Eur J Med Chem, 2019)

tested on: CAPAN-1; assay: Cytotoxicity against human Capan1 cells assessed as reduction in cell viability by MTT assay; assay type: functional, cell-based

Row | Compound | IC50
1 | CCn1cc(-c2nnc(SCc3nnc(-c4cccc(C)c4)o3)[nH]2)c(=O)c2cc(F)c(N3CCN(C)CC3)cc21 | 3.8 to 35.2 µM
2 | CCn1cc(-c2nnc(SCc3nnc(-c4ccc(C)cc4)o3)[nH]2)c(=O)c2cc(F)c(N3CCN(C)CC3)cc21 | 3.8 to 35.2 µM
3 | CCn1cc(-c2nc(SCc3nnc(-c4ccc(C)cc4)o3)n(CN(C)C)n2)c(=O)c2cc(F)c(N3CCN(C)CC3)cc21 | 1.5 to 24.5 µM
4 | CCn1cc(-c2nnc(SCc3nnc(-c4ccc(OC)c(OC)c4)o3)[nH]2)c(=O)c2cc(F)c(N3CCN(C)CC3)cc21 | 3.8 to 35.2 µM
5 | CCn1cc(-c2nc(SCc3nnc(-c4ccc([N+](=O)[O-])cc4)o3)n(CN(C)C)n2)c(=O)c2cc(F)c(N3CCN(C)CC3)cc21 | 1.5 to 24.5 µM
6 | CCn1cc(-c2nc(SCc3nnc(-c4ccc(F)cc4)o3)n(CN(C)C)n2)c(=O)c2cc(F)c(N3CCN(C)CC3)cc21 | 1.5 to 5.2 µM
7 | CCn1cc(-c2nnc(SCc3nnc(-c4cc(OC)c(OC)c(OC)c4)o3)[nH]2)c(=O)c2cc(F)c(N3CCN(C)CC3)cc21 | 3.8 to 35.2 µM
8 | CCn1cc(-c2nc(SCc3nnc(-c4ccc(OC)c(OC)c4)o3)n(CN(C)C)n2)c(=O)c2cc(F)c(N3CCN(C)CC3)cc21 | 1.5 to 24.5 µM
9 | Cc1ccc(-c2csc3nc(-c4cn(C5CC5)c5cc(N6CCN(C)CC6)c(F)cc5c4=O)nn23)cc1 | 3.6 to 56.8 µM
10 | CC1COc2c(N3CCN(C)CC3)c(F)cc3c(=O)c(-c4nc5scc(-c6ccc(Cl)cc6)n5n4)cn1c23 (stereo not given) | 3.6 to 56.8 µM
11 | CN1CCN(c2cc3c(cc2F)c(=O)c(-c2nc4scc(-c5ccc(Cl)cc5)n4n2)cn3C2CC2)CC1 | 3.6 to 56.8 µM

tested on: Hep 3B2; assay: Cytotoxicity against human Hep3B cells assessed as reduction in cell viability by MTT assay; assay type: functional, cell-based

Row | Compound | IC50
12 | CCn1cc(-c2nnc(SCc3nnc(-c4cccc(C)c4)o3)[nH]2)c(=O)c2cc(F)c(N3CCN(C)CC3)cc21 | 3.8 to 35.2 µM
13 | CCn1cc(-c2nnc(SCc3nnc(-c4ccc(C)cc4)o3)[nH]2)c(=O)c2cc(F)c(N3CCN(C)CC3)cc21 | 3.8 to 35.2 µM
14 | CCn1cc(-c2nc(SCc3nnc(-c4ccc(C)cc4)o3)n(CN(C)C)n2)c(=O)c2cc(F)c(N3CCN(C)CC3)cc21 | 1.5 to 24.5 µM
15 | CCn1cc(-c2nnc(SCc3nnc(-c4ccc(OC)c(OC)c4)o3)[nH]2)c(=O)c2cc(F)c(N3CCN(C)CC3)cc21 | 3.8 to 35.2 µM
16 | CCn1cc(-c2nc(SCc3nnc(-c4ccc([N+](=O)[O-])cc4)o3)n(CN(C)C)n2)c(=O)c2cc(F)c(N3CCN(C)CC3)cc21 | 1.5 to 24.5 µM
17 | CCn1cc(-c2nc(SCc3nnc(-c4ccc(F)cc4)o3)n(CN(C)C)n2)c(=O)c2cc(F)c(N3CCN(C)CC3)cc21 | 1.5 to 5.2 µM
18 | CCn1cc(-c2nnc(SCc3nnc(-c4cc(OC)c(OC)c(OC)c4)o3)[nH]2)c(=O)c2cc(F)c(N3CCN(C)CC3)cc21 | 3.8 to 35.2 µM
19 | CCn1cc(-c2nc(SCc3nnc(-c4ccc(OC)c(OC)c4)o3)n(CN(C)C)n2)c(=O)c2cc(F)c(N3CCN(C)CC3)cc21 | 1.5 to 24.5 µM
20 | Cc1ccc(-c2csc3nc(-c4cn(C5CC5)c5cc(N6CCN(C)CC6)c(F)cc5c4=O)nn23)cc1 | 3.6 to 56.8 µM
21 | CC1COc2c(N3CCN(C)CC3)c(F)cc3c(=O)c(-c4nc5scc(-c6ccc(Cl)cc6)n5n4)cn1c23 (stereo not given) | 3.6 to 56.8 µM
22 | CN1CCN(c2cc3c(cc2F)c(=O)c(-c2nc4scc(-c5ccc(Cl)cc5)n4n2)cn3C2CC2)CC1 | 3.6 to 56.8 µM

tested on: HL-60; assay: Cytotoxicity against human HL60 cells assessed as reduction in cell viability by MTT assay; assay type: functional, cell-based

Row | Compound | IC50
23 | CCn1cc(-c2nnc(SCc3nnc(-c4cccc(C)c4)o3)[nH]2)c(=O)c2cc(F)c(N3CCN(C)CC3)cc21 | 3.8 to 35.2 µM
24 | CCn1cc(-c2nnc(SCc3nnc(-c4ccc(C)cc4)o3)[nH]2)c(=O)c2cc(F)c(N3CCN(C)CC3)cc21 | 3.8 to 35.2 µM
25 | CCn1cc(-c2nc(SCc3nnc(-c4ccc(C)cc4)o3)n(CN(C)C)n2)c(=O)c2cc(F)c(N3CCN(C)CC3)cc21 | 1.5 to 24.5 µM
26 | CCn1cc(-c2nnc(SCc3nnc(-c4ccc(OC)c(OC)c4)o3)[nH]2)c(=O)c2cc(F)c(N3CCN(C)CC3)cc21 | 3.8 to 35.2 µM
27 | CCn1cc(-c2nc(SCc3nnc(-c4ccc([N+](=O)[O-])cc4)o3)n(CN(C)C)n2)c(=O)c2cc(F)c(N3CCN(C)CC3)cc21 | 1.5 to 24.5 µM
28 | CCn1cc(-c2nc(SCc3nnc(-c4ccc(F)cc4)o3)n(CN(C)C)n2)c(=O)c2cc(F)c(N3CCN(C)CC3)cc21 | 1.5 to 5.2 µM
29 | CCn1cc(-c2nnc(SCc3nnc(-c4cc(OC)c(OC)c(OC)c4)o3)[nH]2)c(=O)c2cc(F)c(N3CCN(C)CC3)cc21 | 3.8 to 35.2 µM
30 | CCn1cc(-c2nc(SCc3nnc(-c4ccc(OC)c(OC)c4)o3)n(CN(C)C)n2)c(=O)c2cc(F)c(N3CCN(C)CC3)cc21 | 1.5 to 24.5 µM
31 | Cc1ccc(-c2csc3nc(-c4cn(C5CC5)c5cc(N6CCN(C)CC6)c(F)cc5c4=O)nn23)cc1 | 3.6 to 56.8 µM
32 | CC1COc2c(N3CCN(C)CC3)c(F)cc3c(=O)c(-c4nc5scc(-c6ccc(Cl)cc6)n5n4)cn1c23 (stereo not given) | 3.6 to 56.8 µM
33 | CN1CCN(c2cc3c(cc2F)c(=O)c(-c2nc4scc(-c5ccc(Cl)cc5)n4n2)cn3C2CC2)CC1 | 3.6 to 56.8 µM

tested on: SMMC-7721; assay: Cytotoxicity against human SMMC7721 cells assessed as reduction in cell viability by MTT assay; assay type: functional, cell-based

Row | Compound | IC50
34 | CCn1cc(-c2nnc(SCc3nnc(-c4cccc(C)c4)o3)[nH]2)c(=O)c2cc(F)c(N3CCN(C)CC3)cc21 | 3.8 to 35.2 µM
35 | CCn1cc(-c2nnc(SCc3nnc(-c4ccc(C)cc4)o3)[nH]2)c(=O)c2cc(F)c(N3CCN(C)CC3)cc21 | 3.8 to 35.2 µM
36 | CCn1cc(-c2nc(SCc3nnc(-c4ccc(C)cc4)o3)n(CN(C)C)n2)c(=O)c2cc(F)c(N3CCN(C)CC3)cc21 | 1.5 to 24.5 µM
37 | CCn1cc(-c2nnc(SCc3nnc(-c4ccc(OC)c(OC)c4)o3)[nH]2)c(=O)c2cc(F)c(N3CCN(C)CC3)cc21 | 3.8 to 35.2 µM
38 | CCn1cc(-c2nc(SCc3nnc(-c4ccc([N+](=O)[O-])cc4)o3)n(CN(C)C)n2)c(=O)c2cc(F)c(N3CCN(C)CC3)cc21 | 1.5 to 24.5 µM
39 | CCn1cc(-c2nc(SCc3nnc(-c4ccc(F)cc4)o3)n(CN(C)C)n2)c(=O)c2cc(F)c(N3CCN(C)CC3)cc21 | 1.5 to 5.2 µM
40 | CCn1cc(-c2nnc(SCc3nnc(-c4cc(OC)c(OC)c(OC)c4)o3)[nH]2)c(=O)c2cc(F)c(N3CCN(C)CC3)cc21 | 3.8 to 35.2 µM
41 | CCn1cc(-c2nc(SCc3nnc(-c4ccc(OC)c(OC)c4)o3)n(CN(C)C)n2)c(=O)c2cc(F)c(N3CCN(C)CC3)cc21 | 1.5 to 24.5 µM
42 | Cc1ccc(-c2csc3nc(-c4cn(C5CC5)c5cc(N6CCN(C)CC6)c(F)cc5c4=O)nn23)cc1 | 3.6 to 56.8 µM
43 | CC1COc2c(N3CCN(C)CC3)c(F)cc3c(=O)c(-c4nc5scc(-c6ccc(Cl)cc6)n5n4)cn1c23 (stereo not given) | 3.6 to 56.8 µM
44 | CN1CCN(c2cc3c(cc2F)c(=O)c(-c2nc4scc(-c5ccc(Cl)cc5)n4n2)cn3C2CC2)CC1 | 3.6 to 56.8 µM

tested on: L1210; assay: Cytotoxicity against mouse L1210 cells assessed as reduction in cell viability by MTT assay; assay type: functional, cell-based

Row | Compound | IC50
45 | CCn1cc(-c2nnc(SCc3nnc(-c4cccc(C)c4)o3)[nH]2)c(=O)c2cc(F)c(N3CCN(C)CC3)cc21 | 3.8 to 35.2 µM
46 | CCn1cc(-c2nnc(SCc3nnc(-c4ccc(C)cc4)o3)[nH]2)c(=O)c2cc(F)c(N3CCN(C)CC3)cc21 | 3.8 to 35.2 µM
47 | CCn1cc(-c2nc(SCc3nnc(-c4ccc(C)cc4)o3)n(CN(C)C)n2)c(=O)c2cc(F)c(N3CCN(C)CC3)cc21 | 1.5 to 24.5 µM
48 | CCn1cc(-c2nnc(SCc3nnc(-c4ccc(OC)c(OC)c4)o3)[nH]2)c(=O)c2cc(F)c(N3CCN(C)CC3)cc21 | 3.8 to 35.2 µM
49 | CCn1cc(-c2nc(SCc3nnc(-c4ccc([N+](=O)[O-])cc4)o3)n(CN(C)C)n2)c(=O)c2cc(F)c(N3CCN(C)CC3)cc21 | 1.5 to 24.5 µM
50 | CCn1cc(-c2nc(SCc3nnc(-c4ccc(F)cc4)o3)n(CN(C)C)n2)c(=O)c2cc(F)c(N3CCN(C)CC3)cc21 | 1.5 to 5.2 µM
51 | CCn1cc(-c2nnc(SCc3nnc(-c4cc(OC)c(OC)c(OC)c4)o3)[nH]2)c(=O)c2cc(F)c(N3CCN(C)CC3)cc21 | 3.8 to 35.2 µM
52 | CCn1cc(-c2nc(SCc3nnc(-c4ccc(OC)c(OC)c4)o3)n(CN(C)C)n2)c(=O)c2cc(F)c(N3CCN(C)CC3)cc21 | 1.5 to 24.5 µM
53 | Cc1ccc(-c2csc3nc(-c4cn(C5CC5)c5cc(N6CCN(C)CC6)c(F)cc5c4=O)nn23)cc1 | 3.6 to 56.8 µM
54 | CC1COc2c(N3CCN(C)CC3)c(F)cc3c(=O)c(-c4nc5scc(-c6ccc(Cl)cc6)n5n4)cn1c23 (stereo not given) | 3.6 to 56.8 µM
55 | CN1CCN(c2cc3c(cc2F)c(=O)c(-c2nc4scc(-c5ccc(Cl)cc5)n4n2)cn3C2CC2)CC1 | 3.6 to 56.8 µM
